Reference: PubChem BioAssay AID248 (DTP/NCI, 2004)
Values joined by “and” are separate entries in the source; they are usually repeats but may differ in a detail not shown here. Equal values may be shown once. Toxic doses and inconclusive results are not listed. Cut-off read from the data, not from the text of the source: active = T/C of 150% or more; inactive = T/C below 125%.

Test system: L1210 leukemia ip in BDF1 mice, survival T/C
Experiment: NCI In Vivo Anticancer Drug Screen. Data for tumor model L1210 Leukemia (intraperitoneal) in B6D2F1 (BDF1) mice
Settings: endpoint: mean survival time, higher = longer survival
In short: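 Ratio derived from survival: compound-dosed mice over vehicle-dosed mice, all bearing a transplantable tumor.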

[1] = dose: 100.0 mg/kg/injection, schedule: Q01DX009 (ip), vehicle: saline
[2] = dose: 100.0 mg/kg/injection, schedule: Q04DX003 (ip), vehicle: saline
[3] = dose: 200.0 mg/kg/injection, schedule: Q01DX009 (ip), vehicle: saline
[4] = dose: 200.0 mg/kg/injection, schedule: Q04DX003 (ip), vehicle: saline
[5] = dose: 400.0 mg/kg/injection, schedule: Q01DX009 (ip), vehicle: saline
[6] = dose: 400.0 mg/kg/injection, schedule: Q04DX003 (ip), vehicle: saline
[7] = dose: 100.0 mg/kg/injection, schedule: Q01DX009 (ip), vehicle: Klucel (hydroxypropylcellulose) (HPC)
[8] = dose: 100.0 mg/kg/injection, schedule: Q01DX001 (ip), vehicle: saline with Tween-80
[9] = dose: 100.0 mg/kg/injection, schedule: Q01DX009 (ip), vehicle: saline with Tween-80
[10] = dose: 100.0 mg/kg/injection, schedule: Q04DX002 (ip), vehicle: saline with Tween-80
[11] = dose: 100.0 mg/kg/injection, schedule: Q04DX003 (ip), vehicle: saline with Tween-80
[12] = dose: 200.0 mg/kg/injection, schedule: Q01DX001 (ip), vehicle: saline with Tween-80
[13] = dose: 200.0 mg/kg/injection, schedule: Q01DX009 (ip), vehicle: saline with Tween-80
[14] = dose: 200.0 mg/kg/injection, schedule: Q04DX002 (ip), vehicle: saline with Tween-80
[15] = dose: 200.0 mg/kg/injection, schedule: Q04DX003 (ip), vehicle: saline with Tween-80
[16] = dose: 400.0 mg/kg/injection, schedule: Q01DX009 (ip), vehicle: saline with Tween-80
[17] = dose: 400.0 mg/kg/injection, schedule: Q04DX002 (ip), vehicle: saline with Tween-80
[18] = dose: 100.0 mg/kg/injection, schedule: Q01DX001 (ip), vehicle: carboxymethylcellulose (CMC)
[19] = dose: 200.0 mg/kg/injection, schedule: Q01DX001 (ip), vehicle: carboxymethylcellulose (CMC)
[20] = dose: 400.0 mg/kg/injection, schedule: Q01DX001 (ip), vehicle: carboxymethylcellulose (CMC)
[21] = dose: 400.0 mg/kg/injection, schedule: Q01DX001 (ip), vehicle: saline with Tween-80
[22] = dose: 200.0 mg/kg/injection, schedule: Q01DX009 (ip), vehicle: Klucel (hydroxypropylcellulose) (HPC)

Measured: T/C

O=C([O-])C[n+]1ccccc1
inactive: [1] 105 % of control | [2] 105 % of control | [3] 94 % of control | [4] 107 % of control | [5] 87 % of control | [6] 100 % of control

O=C1c2cccc3c([N+](=O)[O-])ccc(c23)C(=O)N1CCCN1CCOCC1
inactive: dose: 25.0 mg/kg/injection, schedule: Q01DX009 (ip), vehicle: Klucel (hydroxypropylcellulose) (HPC) 104 % of control | dose: 50.0 mg/kg/injection, schedule: Q01DX009 (ip), vehicle: Klucel (hydroxypropylcellulose) (HPC) 98 % of control | [7] 93 % of control and 87 % of control

CC(=O)c1cccc(NC(=O)Oc2ccc(-c3ccccc3)cc2)c1
inactive: [8] 98 % of control | [9] 100 % of control and 90 % of control | [10] 96 % of control and 98 % of control | [11] 90 % of control | [12] 90 % of control | [13] 95 % of control | [14] 93 % of control and 98 % of control | [15] 92 % of control | [16] 90 % of control | [17] 91 % of control | dose: 400.0 mg/kg/injection, schedule: Q04DX003 (ip), vehicle: saline with Tween-80 93 % of control

Cc1cccc2cc[nH]c12
inactive: dose: 50.0 mg/kg/injection, schedule: Q01DX001 (ip), vehicle: other 115 % of control | dose: 100.0 mg/kg/injection, schedule: Q01DX001 (ip), vehicle: other 87 % of control | dose: 200.0 mg/kg/injection, schedule: Q01DX001 (ip), vehicle: other 102 % of control | dose: 400.0 mg/kg/injection, schedule: Q01DX001 (ip), vehicle: other 96 % of control

C[CH2][Sn](/[CH]=C\CO)([CH2]C)[CH2]C
inactive: dose: 0.78 mg/kg/injection, schedule: Q01DX009 (ip), vehicle: saline 86 % of control | dose: 1.56 mg/kg/injection, schedule: Q01DX009 (ip), vehicle: saline 104 % of control | dose: 3.12 mg/kg/injection, schedule: Q01DX009 (ip), vehicle: saline 90 % of control

COc1ccc(OC)c(COC(=O)c2ccccc2)c1COC(=O)c1ccccc1
inactive: [18] 95 % of control | [19] 101 % of control | [20] 95 % of control

CNC(N)=S
inactive: [2] 99 % of control | [4] 94 % of control | [6] 97 % of control

Cc1nc2cnn(C)c2nc1C
inactive: dose: 50.0 mg/kg/injection, schedule: Q01DX009 (ip), vehicle: saline 101 % of control | [1] 97 % of control | [2] 106 % of control | [3] 88 % of control | [4] 100 % of control

CC/C=C(CC)/C(CC)=C(/CC)CO
inactive: [8] 103 % of control | [12] 95 % of control | [21] 92 % of control

O=Cc1cccn1Cc1cc2c(cc1[N+](=O)[O-])OCO2
inactive: dose: 25.0 mg/kg/injection, schedule: Q04DX002 (ip), vehicle: Klucel (hydroxypropylcellulose) (HPC) 101 % of control | dose: 50.0 mg/kg/injection, schedule: Q04DX002 (ip), vehicle: Klucel (hydroxypropylcellulose) (HPC) 101 % of control | dose: 100.0 mg/kg/injection, schedule: Q04DX002 (ip), vehicle: Klucel (hydroxypropylcellulose) (HPC) 97 % of control

Cc1ccc2c(c1)SP(=S)(c1ccccc1)N2 (stereo unspecified)
inactive: dose: 15.0 mg/kg/injection, schedule: Q01DX Z (ip), vehicle: saline 100 % of control | dose: 25.0 mg/kg/injection, schedule: Q01DX Z (ip), vehicle: saline 89 % of control

Cc1ccc2c(c1)S(=O)(=O)N(C)C(c1ccccc1)=C2
inactive: dose: 100.0 mg/kg/injection, schedule: Q01DX001 (ip), vehicle: steriod suspending solution 96 % of control | dose: 200.0 mg/kg/injection, schedule: Q01DX001 (ip), vehicle: steriod suspending solution 105 % of control | dose: 400.0 mg/kg/injection, schedule: Q01DX001 (ip), vehicle: steriod suspending solution 86 % of control

Nc1cc(S(N)(=O)=O)ccc1Br
inactive: dose: 100.0 mg/kg/injection, schedule: Q04DX003 (ip), vehicle: water 95 % of control | dose: 200.0 mg/kg/injection, schedule: Q04DX003 (ip), vehicle: water 97 % of control | dose: 400.0 mg/kg/injection, schedule: Q04DX003 (ip), vehicle: water 92 % of control

C(CCC1CCCC1)=C(CCCC1CCCC1)CCCC1CCCC1
inactive: [8] 100 % of control | [12] 94 % of control | [21] 91 % of control

CC(=O)Nc1ccc(Br)cc1
inactive: dose: 50.0 mg/kg/injection, schedule: Q01DX001 (ip), vehicle: carboxymethylcellulose (CMC) 92 % of control | [18] 93 % of control | [7] 103 % of control | dose: 100.0 mg/kg/injection, schedule: Q04DX003 (ip), vehicle: Klucel (hydroxypropylcellulose) (HPC) 98 % of control | [19] 93 % of control | [22] 113 % of control | dose: 200.0 mg/kg/injection, schedule: Q04DX003 (ip), vehicle: Klucel (hydroxypropylcellulose) (HPC) 104 % of control | dose: 400.0 mg/kg/injection, schedule: Q04DX003 (ip), vehicle: Klucel (hydroxypropylcellulose) (HPC) 106 % of control

CCOC(=O)c1ccc(NC(=O)c2ccc(Cl)cc2Cl)cc1
inactive: dose: 50.0 mg/kg/injection, schedule: Q04DX003 (ip), vehicle: saline with Tween-80 102 % of control | [9] 96 % of control and 90 % of control | [10] 93 % of control and 113 % of control | [11] 98 % of control | [13] 97 % of control and 110 % of control | [14] 95 % of control and 91 % of control | [15] 98 % of control | [17] 102 % of control and 92 % of control

COC(=O)C1(C)CCC2(C)CCC3(C)C4=CC=C5C(=CC(=O)C(O)=C5C)C4(C)CCC3(C)C2C1 (stereo unspecified)
inactive: dose: 37.5 mg/kg/injection, schedule: Q01DX001 (sc), vehicle: steriod suspending solution 104 % of control | dose: 75.0 mg/kg/injection, schedule: Q01DX001 (sc), vehicle: steriod suspending solution 98 % of control | dose: 150.0 mg/kg/injection, schedule: Q01DX001 (sc), vehicle: steriod suspending solution 98 % of control | dose: 300.0 mg/kg/injection, schedule: Q01DX001 (sc), vehicle: steriod suspending solution 95 % of control

O=[N+]([O-])c1ccc(N/N=C2\CCCc3c2ccc2ccccc32)c([N+](=O)[O-])c1
inactive: dose: 100.0 mg/kg/injection, schedule: Q01DX001 (ip), vehicle: saline 97 % of control | dose: 200.0 mg/kg/injection, schedule: Q01DX001 (ip), vehicle: saline 92 % of control | dose: 400.0 mg/kg/injection, schedule: Q01DX001 (ip), vehicle: saline 103 % of control

COc1cccc(CN(C)CCC(=O)O)c1
inactive: [1] 97 % of control | [2] 105 % of control | [3] 94 % of control | [4] 109 % of control | [5] 101 % of control | [6] 105 % of control

C=CCC(C#N)(CCN(C)C)c1cccc2ccccc12 (stereo unspecified)
inactive: [7] 99 % of control | [22] 111 % of control

Cc1ccc2nc(-c3ccccc3N)[nH]c2c1
inactive: [9] 97 % of control | [13] 92 % of control | [16] 92 % of control

Cc1ccccc1SC(=O)Nc1cc([N+](=O)[O-])ccc1Cl
inactive: [18] 94 % of control and 90 % of control | dose: 100.0 mg/kg/injection, schedule: Q01DX009 (ip), vehicle: carboxymethylcellulose (CMC) 96 % of control | dose: 100.0 mg/kg/injection, schedule: Q04DX002 (ip), vehicle: carboxymethylcellulose (CMC) 97 % of control and 99 % of control | dose: 100.0 mg/kg/injection, schedule: Q04DX003 (ip), vehicle: carboxymethylcellulose (CMC) 89 % of control | [19] 94 % of control and 88 % of control | dose: 200.0 mg/kg/injection, schedule: Q01DX009 (ip), vehicle: carboxymethylcellulose (CMC) 98 % of control | dose: 200.0 mg/kg/injection, schedule: Q04DX002 (ip), vehicle: carboxymethylcellulose (CMC) 94 % of control and 101 % of control | dose: 200.0 mg/kg/injection, schedule: Q04DX003 (ip), vehicle: carboxymethylcellulose (CMC) 96 % of control and 91 % of control | [20] 97 % of control and 90 % of control | dose: 400.0 mg/kg/injection, schedule: Q01DX009 (ip), vehicle: carboxymethylcellulose (CMC) 94 % of control | dose: 400.0 mg/kg/injection, schedule: Q04DX002 (ip), vehicle: carboxymethylcellulose (CMC) 95 % of control and 101 % of control | dose: 400.0 mg/kg/injection, schedule: Q04DX003 (ip), vehicle: carboxymethylcellulose (CMC) 96 % of control and 92 % of control
